Reference: article PMC12135066, “Design and Preclinical Evaluation of Novel uPAR-Targeting Radiopeptides Modified with an Albumin-Binding Entity” (Molecular Pharmaceutics, 2025)

Test: Stability of the radiopeptides in human blood plasma
Settings: for remaining at 1 h, 10 MBq/200 µL / remaining at 24 h, 10 MBq/200 µL / remaining at 4 h, 10 MBq/200 µL: human; for remaining at 1 h, 10 MBq/200 µL / remaining at 24 h, 10 MBq/200 µL: blood plasma
Protocol: The radiopeptides (50 MBq/nmol) stabilized with L-ascorbic acid were diluted in mouse and human blood plasma and incubated at 37 °C. Aliquots were taken after 1, 4, and 24 h and analyzed using reversed-phase thin-layer chromatography (TLC) (Supporting Information).
aProduct peak expressed as percentage of the sum of integrated peak areas of the entire chromatogram relative to
the value obtained immediately after labeling (set as 100%), average ± standard deviation (SD) (n=3).
Stability of the Radiopeptides in Mouse and Human Blood Plasma
Purpose: The stability of the radiopeptides was assessed in mouse and human blood plasma as an
indication for their in vivo stability.
Methods: The radiopeptides (50 MBq/nmol) stabilized with L-ascorbic acid were diluted in mouse
blood plasma (Lot: 32321, Rockland Immunochemicals Inc., U.S.A.) or in human blood plasma
(Stiftung Blutspende SRK Aargau -Solothurn, Switzerland) at a concentration of 10 MBq/200 µL and
incubated at 37 °C over a 24 h time period. Control samples were prepared by diluting the radiopeptides
in saline at the same activity concentration. Aliquots of each dilution were taken after 1 h, 4 h, and 24 h
(2 µL, ~100 kBq) and investigated employing thin layer chromatography (TLC) methods on reversed-
phase TLC plates (MERCK Analytical Chromatography, TLC Silica gel 60 RP -18 F254s) as stationary
phase and a 3/7 (v/v) mixture of acetonitrile /citrate buffer (0.1 M, pH 5.5) as mobile phase. A dilution
of [177Lu]LuCl3/HCl 0.04 M (10 MBq/200 µL) was added on each TLC plate. The developed and dried
TLC plates were exposed to a phosphor screen (Super resolution screen PSR10450013, PerkinElmer)
for 1 min. The screen was read with a Cyclone Plus phosphor imager (PerkinElmer) and the peak
quantification was performed using OptiQuant Software (version 5.0).

remaining at 1 h, 10 MBq/200 µL [%]	remaining at 24 h, 10 MBq/200 µL [%]	remaining at 4 h, 10 MBq/200 µL (human blood plasma) [%]	Intact radiopeptide in human blood plasma [%] (24 h, human blood plasma, 10 MBq/200 µL, 50 MBq/nmol, stabilized with L-ascorbic acid, 37 °C, reversed-phase TLC, phosphor imager, relative to t=0 (100%), average ± SD, n=3)	SMILES
100	99 ± 1	99 ± 2		CC(C)C[C@H](NC(=O)[C@H](Cc1ccc(O)cc1)NC(=O)[C@@H](CCCNC(=N)N)NC(=O)[C@@H](CO)NC(=O)[C@H](Cc1ccccc1)NC(=O)[C@H](CC1CCCCC1)NC(=O)[C@H](CC(=O)O)NC(=O)[C@H](CCCCNC(=O)CCCc1ccc(I)cc1)NC(=O)CN1CCN(CC(=O)O)CCN(CC(=O)O)CCN(CC(=O)O)CC1)C(=O)N[C@@H](Cc1c[nH]c2ccccc12)C(=O)N[C@@H](CO)C(N)=O [[^177Lu]Lu-uPAR-01, metal not drawn]
71 ± 3	4.5 ± 1.2	~13	~4.5	CC(C)C[C@H](NC(=O)[C@H](Cc1ccc(O)cc1)NC(=O)[C@@H](CCCNC(=N)N)NC(=O)[C@@H](CO)NC(=O)[C@H](Cc1ccccc1)NC(=O)[C@H](CC1CCCCC1)NC(=O)[C@H](CC(=O)O)NC(=O)CN1CCN(CC(=O)O)CCN(CC(=O)O)CCN(CC(=O)O)CC1)C(=O)N[C@@H](Cc1c[nH]c2ccccc12)C(=O)N[C@@H](CO)C(N)=O [[^177Lu]Lu-DOTA-AE105, metal not drawn, reference compound]
99 ± 1	99 ± 1	99 ± 1		CC(C)C[C@H](NC(=O)[C@H](Cc1ccc(O)cc1)NC(=O)[C@@H](CCCNC(=N)N)NC(=O)[C@@H](CO)NC(=O)[C@H](Cc1ccccc1)NC(=O)[C@H](CC1CCCCC1)NC(=O)[C@H](CC(=O)O)NC(=O)CCOCCOCCOCCOCCNC(=O)[C@H](CCCCNC(=O)CCCc1ccc(I)cc1)NC(=O)CN1CCN(CC(=O)O)CCN(CC(=O)O)CCN(CC(=O)O)CC1)C(=O)N[C@@H](Cc1c[nH]c2ccccc12)C(=O)N[C@@H](CO)C(N)=O [[^177Lu]Lu-uPAR-05, metal not drawn]
101 ± 3	90 ± 5	98 ± 2		CC(C)C[C@H](NC(=O)[C@H](Cc1ccc(O)cc1)NC(=O)[C@@H](CCCNC(=N)N)NC(=O)[C@@H](CO)NC(=O)[C@H](Cc1ccccc1)NC(=O)[C@H](CC1CCCCC1)NC(=O)[C@H](CC(=O)O)NC(=O)[C@H](CCCCNC(=O)CCCc1ccc(I)cc1)NC(=O)[C@@H](N)CCCCNC(=O)CN1CCN(CC(=O)O)CCN(CC(=O)O)CCN(CC(=O)O)CC1)C(=O)N[C@@H](Cc1c[nH]c2ccccc12)C(=O)N[C@@H](CO)C(N)=O [[^177Lu]Lu-uPAR-04, metal not drawn]
